Data taken from PubChem BioAssay AID1259411 (Chemical Carcinogenesis Research Information System (CCRIS), 2018).
The source made the active and inactive calls. No rule for the calls is given here.

Tested on: rodent carcinogenicity bioassays, tumor incidence
Test: CCRIS carcinogenicity studies
Summary of the method: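 NCI-built, expert-reviewed records of carcinogenicity and related test outcomes (mutagenicity, tumor promotion/inhibition) compiled from published and report sources, historical span 1985-2011, not updated.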

Cc1ccc2cc3c(ccc4ccccc43)c3c2c1C=C3
carcinogen call (Species: MOUSE, Strain/Sex: SWISS/FEMALE, Route: DERMAL, Dose: 0.2 UMOL IN 33.4 µL ACETONE TO SHAVED DORSAL SKIN 2/WK FOR 20 WK (STUDY DURATION: 52 WK), Tumor Site: Type of Lesion: SKIN: PAPILLOMA, KERATOACANTHOMA, EPIDERMAL CARCINOMA): active; positive

CCc1cccc2c3c([nH]c12)C(CC)(CC(=O)O)OCC3 (centres undefined)
carcinogen call (Species: MOUSE, Strain/Sex: CD-1/FEMALE, Route: ORAL, Dose: 0;3, 9, 15 MG/KG/D IN DIET FOR 78 WK (STUDY DURATION: 78 WK), Dose: 0;3, 9, 15 MG/KG/D IN DIET FOR 78 WK (STUDY DURATION: 78 WK)): inactive; negative
carcinogen call (Species: MOUSE, Strain/Sex: CD-1/MALE, Route: ORAL, Dose: 0, 3, 9, 15 MG/KG/D IN DIET FOR 78 WK (STUDY DURATION: 78 WK), Dose: 0, 3, 9, 15 MG/KG/D IN DIET FOR 78 WK (STUDY DURATION: 78 WK)): inactive; negative
carcinogen call (Species: RAT, Strain/Sex: STRAIN-CD/FEMALE, Route: ORAL, Dose: 0, 3, 9, 15 MG/KG/D IN DIET FOR 104 WK (STUDY DURATION: 104 WK), Dose: 0, 3, 9, 15 MG/KG/D IN DIET FOR 104 WK (STUDY DURATION: 104 WK)): inactive; negative
carcinogen call (Species: RAT, Strain/Sex: STRAIN-CD/MALE, Route: ORAL, Dose: 0, 3, 9, 15 MG/KG/D IN DIET FOR 104 WK (STUDY DURATION: 104 WK), Dose: 0, 3, 9, 15 MG/KG/D IN DIET FOR 104 WK (STUDY DURATION: 104 WK)): inactive; negative

CC1(C)[C@H](C(=O)O[C@H](C#N)c2cccc(Oc3ccccc3)c2)[C@@H]1C(Br)C(Br)(Br)Br (some centres undefined)
carcinogen call (Species: Mouse, Strain/Sex: Not reported by DPR/Female (60-80/Group), Route: Gavage, Dose: 0, 0.75, 3.0, 10.0 mg/kg/day in corn oil for 104 wk, Dose: 0, 0.75, 3.0, 10.0 mg/kg/day in corn oil for 104 wk): inactive; negative
carcinogen call (Species: Mouse, Strain/Sex: Not reported by DPR/Male (60-80/Group), Route: Gavage, Dose: 0, 0.75, 3.0, 10.0 mg/kg/day in corn oil for 104 wk, Dose: 0, 0.75, 3.0, 10.0 mg/kg/day in corn oil for 104 wk): inactive; negative
carcinogen call (Species: Rat, Strain/Sex: Not reported by DPR/Female (60-80/Group), Route: Gavage, Dose: 0, 0.75, 3.0, 12.0 mg/kg/day in corn oil for 104 wk, Dose: 0, 0.75, 3.0, 12.0 mg/kg/day in corn oil for 104 wk): inactive; negative
carcinogen call (Species: Rat, Strain/Sex: Not reported by DPR/Male (60-80/Group), Route: Gavage, Dose: 0, 0.75, 3.0, 12.0 mg/kg/day in corn oil for 104 wk, Dose: 0, 0.75, 3.0, 12.0 mg/kg/day in corn oil for 104 wk): inactive; negative

CC(C)[C@H](C(=O)O[C@H](C#N)c1cccc(Oc2ccccc2)c1)c1ccc(Cl)cc1
carcinogen call (Species: Mouse, Strain/Sex: Crl:CD-17BR/Female (80/Group), Route: Oral, Dose: 0, 35, 150 ppm in diet for 18 mo, study duration 18 mo, Dose: 0, 35, 150 ppm in diet for 18 mo, study duration 18 mo): inactive; negative. a 350 ppm group was terminated at study day 58 due to self-trauma and
carcinogen call (Species: Mouse, Strain/Sex: Crl:CD-17BR/Male (80/Group), Route: Oral, Dose: 0, 35, 150 ppm in diet for 18 mo, study duration 18 mo, Dose: 0, 35, 150 ppm in diet for 18 mo, study duration 18 mo): inactive; negative. a 350 ppm group was terminated at study day 58 due to self-trauma and

Nc1ccc(-c2ccccc2)cc1
carcinogen call (Species: DOG, Route: ORAL, Tumor Site: Type of Lesion: URINARY BLADDER): active; positive
carcinogen call (Species: HUMAN, Route: ORAL, INHALATION, DERMAL, Tumor Site: Type of Lesion: URINARY BLADDER): active; positive
carcinogen call (Species: MOUSE, Route: ORAL, Tumor Site: Type of Lesion: URINARY BLADDER, LIVER): active; positive
carcinogen call (Species: MOUSE, Route: SUBCUTANEOUS, Tumor Site: Type of Lesion: LIVER): active; positive
carcinogen call (Species: MOUSE, Strain/Sex: B6C3F1/MALE, Route: INTRAPERITONEAL, Dose: 0, 0.625 UMOL IN 35 µL DMSO ON D 1, 8, AND 15 AFTER BIRTH (STUDY DURATION: 8 MO), Tumor Site: Type of Lesion: LIVER: HEPATOCELLULAR ADENOMA): active; positive
carcinogen call (Species: MOUSE, Strain/Sex: B6C3F1/MALE, Route: INTRAPERITONEAL, Dose: 0, 0.625 UMOL IN 35 µL DMSO ON D 1, 8, AND 15 AFTER BIRTH (STUDY DURATION: 12 MO), Tumor Site: Type of Lesion: LIVER: HEPATOCELLULAR ADENOMA, HEPATOCELLULAR CARCINOMA): active; positive
carcinogen call (Species: MOUSE, Strain/Sex: B6C3F1/MALE, Route: INTRAPERITONEAL, Dose: 0, 1.25 UMOL IN 35 µL DMSO ON D 1, 8, AND 15 AFTER BIRTH (STUDY DURATION: 8 MO), Tumor Site: Type of Lesion: LIVER: HEPATOCELLULAR ADENOMA): active; positive
carcinogen call (Species: MOUSE, Strain/Sex: B6C3F1/MALE, Route: INTRAPERITONEAL, Dose: 0, 1.25 UMOL IN 35 µL DMSO ON D 1, 8, AND 15 AFTER BIRTH (STUDY DURATION: 12 MO), Tumor Site: Type of Lesion: LIVER: HEPATOCELLULAR ADENOMA, HEPATOCELLULAR CARCINOMA): active; positive
carcinogen call (Species: MOUSE, Strain/Sex: BALB/CSTCRLFC3HF/NCTR/FEMALE, Route: ORAL, Dose: 0, 7, 19, 38, 75, 150, 300 PPM IN DRINKING WATER FOR 96 WK (STUDY DURATION: 96 WK), Dose: 0, 7, 19, 38, 75, 150, 300 PPM IN DRINKING WATER FOR 96 WK (STUDY DURATION: 96 WK), Tumor Site: Type of Lesion: BLOOD VESSELS: ANGIOSARCOMA, LIVER: HEPATOCELLULAR CARCINOMA): active; positive
carcinogen call (Species: MOUSE, Strain/Sex: BALB/CSTCRLFC3HF/NCTR/MALE, Route: ORAL, Dose: 0, 7, 14, 28, 55, 110, 220 PPM IN DRINKING WATER FOR 96 WK (STUDY DURATION: 96 WK), Dose: 0, 7, 14, 28, 55, 110, 220 PPM IN DRINKING WATER FOR 96 WK (STUDY DURATION: 96 WK), Tumor Site: Type of Lesion: BLOOD VESSELS: ANGIOSARCOMA, BLADDER: CARCINOMA): active; positive
carcinogen call (Species: RABBIT, Route: ORAL, Tumor Site: Type of Lesion: URINARY BLADDER): active; positive
carcinogen call (Species: RAT, Route: SUBCUTANEOUS, Tumor Site: Type of Lesion: MAMMARY GLAND, INTESTINES): active; positive

C=CCc1ccc(OC)c(OC)c1
carcinogen call (Species: MOUSE, Strain/Sex: B6C3F1/FEMALE, Route: GAVAGE, Dose: 0, 37, 75, 150 MG/KG BW IN 0.5% METHYLCELLULOSE 5 D/WK FOR 105 WK (STUDY DURATION: 105 WK), Dose: 0, 37, 75, 150 MG/KG BW IN 0.5% METHYLCELLULOSE 5 D/WK FOR 105 WK (STUDY DURATION: 105 WK), Tumor Site: Type of Lesion: LIVER: HEPATOCELLULAR ADENOMA, HEPATOCELLULAR CARCINOMA, HEPATOBLASTOMA): active; positive
carcinogen call (Species: MOUSE, Strain/Sex: B6C3F1/MALE, Route: GAVAGE, Dose: 0, 37, 75, 150 MG/KG BW IN 0.5% METHYLCELLULOSE 5 D/WK FOR 105 WK (STUDY DURATION: 105 WK), Dose: 0, 37, 75, 150 MG/KG BW IN 0.5% METHYLCELLULOSE 5 D/WK FOR 105 WK (STUDY DURATION: 105 WK), Tumor Site: Type of Lesion: LIVER: TUMOR): active; positive
carcinogen call (Species: RAT, Strain/Sex: F344/N/FEMALE, Route: GAVAGE, Dose: 0, 37, 75, 150 MG/KG BW IN 0.5% METHYLCELLULOSE 5D/WK FOR 105 WK (STUDY DURATION: 105 WK), Dose: 0, 37, 75, 150 MG/KG BW IN 0.5% METHYLCELLULOSE 5D/WK FOR 105 WK (STUDY DURATION: 105 WK), Tumor Site: Type of Lesion: LIVER: HEPATOCELLULAR ADENOMA OR CARCINOMA, GLANDULAR STOMACH: BENIGN OR MALIGNANT NEUROENDOCRINE TUMOR): active; positive
carcinogen call (Species: RAT, Strain/Sex: F344/N/FEMALE, Route: GAVAGE, Dose: 0, 300 MG/KG BW IN 0.5% METHYLCELLULOSE 5D/WK FOR 52 WK (STUDY DURATION: 105 WK), Tumor Site: Type of Lesion: ADRENAL MEDULLA: BENIGN PHEOCHROMOCYTOMA, LIVER: HEPATOCELLULAR ADENOMA OR CARCINOMA, HEPATOCHOLANGIOMA OR HEPATOCHOLANG): active; positive
carcinogen call (Species: RAT, Strain/Sex: F344/N/MALE, Route: GAVAGE, Dose: 0, 37, 75, 150 MG/KG BW IN 0.5% METHYLCELLULOSE 5 D/WK FOR 105 WK (STUDY DURATION: 105 WK), Dose: 0, 37, 75, 150 MG/KG BW IN 0.5% METHYLCELLULOSE 5 D/WK FOR 105 WK (STUDY DURATION: 105 WK), Tumor Site: Type of Lesion: LIVER: HEPATOCELLULAR ADENOMA OR CARCINOMA, GLANDULAR STOMACH: MALIGNANT NEUROENDOCRINE TUMOR, KIDNEY: ADENOMA, MAMMARY, Tumor Site: Type of Lesion: LIVER: HEPATOCELLULAR ADENOMA OR CARCINOMA, GLANDULAR STOMACH: MALIGNANT NEUROENDOCRINE TUMOR, KIDNEY: ADENOMA, MAMMARY): active; positive
carcinogen call (Species: RAT, Strain/Sex: F344/N/MALE, Route: GAVAGE, Dose: 0, 300 MG/KG BW IN 0.5% METHYLCELLULOSE 5 D/WK FOR 52 WK (STUDY DURATION: 105 WK), Tumor Site: Type of Lesion: KIDNEY: RENAL TUBULE ADENOMA OR CARCINOMA, LIVER: HEPATOCELLULAR ADENOMA OR CARCINOMA, HEPATOCHOLANGIOMA OR HEPATOCHOLAN): active; positive
